In patent US20230048132A1, “CYCLIN-DEPENDENT KINASE INHIBITORS” (SPV THERAPEUTICS INC., priority 2018, published 2023):
Where “and” joins values, the source holds several entries; their conditions need not be identical. Equal entries are not always repeated. Where two headings read alike, the source gives them in different places.

Experiments:
Assay in all cases: CDK inhibition assay (microfluidic LabChip, IC50 format)
CDK9-CYCLINT1 = molecular target: T1, CDK9-CYCLINT1 (Homo sapiens, UniProt P50750); assay type: biochemical; settings: read-out: CDK9 CyclinT1 IC50
T1 construct: purchased Carna
T1 sequence (P50750 whole entry): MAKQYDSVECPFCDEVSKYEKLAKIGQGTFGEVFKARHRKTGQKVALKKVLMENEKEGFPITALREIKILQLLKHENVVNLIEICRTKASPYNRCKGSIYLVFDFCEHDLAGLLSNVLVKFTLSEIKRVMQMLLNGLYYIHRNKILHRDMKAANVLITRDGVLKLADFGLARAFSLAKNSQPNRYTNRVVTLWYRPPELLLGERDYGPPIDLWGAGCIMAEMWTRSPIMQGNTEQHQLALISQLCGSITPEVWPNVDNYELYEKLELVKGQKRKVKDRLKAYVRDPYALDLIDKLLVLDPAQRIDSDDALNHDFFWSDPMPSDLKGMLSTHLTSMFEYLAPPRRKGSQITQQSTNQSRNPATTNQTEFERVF
T1 sequence (O60563 whole entry partner): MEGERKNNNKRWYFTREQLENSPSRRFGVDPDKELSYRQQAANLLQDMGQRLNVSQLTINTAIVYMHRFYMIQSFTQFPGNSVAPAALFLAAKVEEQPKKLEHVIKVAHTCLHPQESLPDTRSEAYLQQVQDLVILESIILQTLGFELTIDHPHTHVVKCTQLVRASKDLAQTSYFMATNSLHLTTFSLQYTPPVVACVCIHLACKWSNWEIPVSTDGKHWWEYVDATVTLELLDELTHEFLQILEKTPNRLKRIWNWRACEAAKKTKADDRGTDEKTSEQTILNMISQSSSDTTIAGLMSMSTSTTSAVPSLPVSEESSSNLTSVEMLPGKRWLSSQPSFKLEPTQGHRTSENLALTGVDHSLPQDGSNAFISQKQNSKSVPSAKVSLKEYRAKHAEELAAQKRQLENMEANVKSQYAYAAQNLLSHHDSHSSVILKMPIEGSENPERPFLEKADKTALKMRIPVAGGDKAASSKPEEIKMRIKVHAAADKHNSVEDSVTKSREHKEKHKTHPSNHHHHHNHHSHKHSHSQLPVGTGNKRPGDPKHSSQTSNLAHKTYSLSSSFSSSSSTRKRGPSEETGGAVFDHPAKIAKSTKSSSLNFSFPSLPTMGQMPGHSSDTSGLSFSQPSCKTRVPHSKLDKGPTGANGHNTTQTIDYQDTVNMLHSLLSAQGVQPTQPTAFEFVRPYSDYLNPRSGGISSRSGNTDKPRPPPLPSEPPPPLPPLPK

CDK6-CYCLIND3 = molecular target: T2, CDK6-CYCLIND3 (Homo sapiens, UniProt Q00534); assay type: biochemical; settings: read-out: CDK6 CyclinD3 IC50
T2 construct: purchased Carna
T2 sequence (Q00534 whole entry): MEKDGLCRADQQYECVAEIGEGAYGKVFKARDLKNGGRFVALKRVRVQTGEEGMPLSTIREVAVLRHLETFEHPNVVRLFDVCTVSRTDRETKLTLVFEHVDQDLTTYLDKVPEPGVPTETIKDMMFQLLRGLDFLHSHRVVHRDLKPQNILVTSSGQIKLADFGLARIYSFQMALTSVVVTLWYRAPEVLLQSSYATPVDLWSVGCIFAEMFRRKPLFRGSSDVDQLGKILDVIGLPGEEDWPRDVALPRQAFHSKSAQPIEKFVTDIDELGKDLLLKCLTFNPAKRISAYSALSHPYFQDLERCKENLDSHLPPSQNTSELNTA
T2 sequence (P30281 whole entry partner): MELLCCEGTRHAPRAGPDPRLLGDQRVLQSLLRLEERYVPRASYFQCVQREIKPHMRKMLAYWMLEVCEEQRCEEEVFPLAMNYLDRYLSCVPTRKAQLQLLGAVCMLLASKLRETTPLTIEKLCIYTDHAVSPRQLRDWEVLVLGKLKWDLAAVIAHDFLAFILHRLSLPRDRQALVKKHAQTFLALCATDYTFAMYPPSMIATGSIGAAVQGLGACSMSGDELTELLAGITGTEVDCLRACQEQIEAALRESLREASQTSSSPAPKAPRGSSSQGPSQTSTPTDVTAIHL

CDK2-CYCLINA = molecular target: T3, CDK2-CYCLINA (Homo sapiens, UniProt P24941); assay type: biochemical; settings: read-out: CDK2 CyclinA IC50
T3 construct: purchased Millipore

CDK7 CyclinH = CDK7 CyclinH (Homo sapiens, UniProt P50613); assay type: biochemical
CDK7 CyclinH, sequence (P50613 whole entry): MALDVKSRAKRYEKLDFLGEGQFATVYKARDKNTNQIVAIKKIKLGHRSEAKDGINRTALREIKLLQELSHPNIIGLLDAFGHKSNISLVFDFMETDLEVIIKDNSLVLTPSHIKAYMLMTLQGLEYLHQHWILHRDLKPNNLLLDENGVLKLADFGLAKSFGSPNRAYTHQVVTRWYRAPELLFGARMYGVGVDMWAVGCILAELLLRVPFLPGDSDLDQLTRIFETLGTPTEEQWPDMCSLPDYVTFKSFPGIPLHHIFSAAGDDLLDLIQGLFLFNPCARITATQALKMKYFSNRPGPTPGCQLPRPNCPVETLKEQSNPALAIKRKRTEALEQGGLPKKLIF
CDK7 CyclinH, sequence (P51946 whole entry partner): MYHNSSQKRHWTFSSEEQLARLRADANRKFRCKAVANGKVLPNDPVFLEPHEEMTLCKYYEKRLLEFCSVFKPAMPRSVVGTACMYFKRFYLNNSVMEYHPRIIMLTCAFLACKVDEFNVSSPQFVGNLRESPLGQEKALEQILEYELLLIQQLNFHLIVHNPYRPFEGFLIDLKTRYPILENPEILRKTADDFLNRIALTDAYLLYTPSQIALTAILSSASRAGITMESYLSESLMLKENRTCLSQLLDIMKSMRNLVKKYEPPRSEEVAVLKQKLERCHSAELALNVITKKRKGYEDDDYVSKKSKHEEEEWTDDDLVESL
CDK7 CyclinH, sequence (P51948 whole entry partner): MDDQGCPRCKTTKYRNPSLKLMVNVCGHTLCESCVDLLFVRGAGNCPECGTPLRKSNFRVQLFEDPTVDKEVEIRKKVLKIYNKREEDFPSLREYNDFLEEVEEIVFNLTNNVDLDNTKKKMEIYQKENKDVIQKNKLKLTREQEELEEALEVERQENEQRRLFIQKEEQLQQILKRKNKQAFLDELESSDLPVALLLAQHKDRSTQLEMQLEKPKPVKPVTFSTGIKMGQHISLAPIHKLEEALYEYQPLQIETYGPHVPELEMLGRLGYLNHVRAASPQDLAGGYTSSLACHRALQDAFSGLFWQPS

CDK4-CYCLIND1 = CDK4-CYCLIND1 (Homo sapiens, UniProt P11802); settings: a second value in parentheses for some compounds
CDK4-CYCLIND1, sequence (P11802 whole entry): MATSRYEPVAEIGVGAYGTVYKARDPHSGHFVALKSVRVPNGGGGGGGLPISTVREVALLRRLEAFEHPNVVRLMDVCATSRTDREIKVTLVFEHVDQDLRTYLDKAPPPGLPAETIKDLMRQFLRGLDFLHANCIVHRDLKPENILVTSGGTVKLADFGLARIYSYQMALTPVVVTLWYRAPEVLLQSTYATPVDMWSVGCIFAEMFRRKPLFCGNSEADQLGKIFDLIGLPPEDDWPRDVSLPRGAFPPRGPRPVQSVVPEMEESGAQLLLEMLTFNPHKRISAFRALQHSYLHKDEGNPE
CDK4-CYCLIND1, sequence (P24385 whole entry partner): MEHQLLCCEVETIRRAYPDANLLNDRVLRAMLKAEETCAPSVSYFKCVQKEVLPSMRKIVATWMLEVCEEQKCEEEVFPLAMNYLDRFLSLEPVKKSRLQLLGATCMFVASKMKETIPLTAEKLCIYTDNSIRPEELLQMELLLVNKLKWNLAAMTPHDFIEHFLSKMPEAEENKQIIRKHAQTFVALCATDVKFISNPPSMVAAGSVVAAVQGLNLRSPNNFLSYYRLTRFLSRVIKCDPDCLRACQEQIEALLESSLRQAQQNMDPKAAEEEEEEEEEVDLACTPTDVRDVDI
Protocol: Inhibition assays were performed using microfluidic LabChip 300 Drug Discovery System from Caliper Life Sciences. […] The assay has a total volume of 10 μL consisting of 5 μL of enzyme and buffer and 5 μL of substrate and buffer. The test compounds were diluted in 100% dimethylsulfoxide (DMSO) using 3-fold dilution steps. […] Compounds were tested in a single well for each dilution and the final concentration of DMSO was maintained at 1%.
The assay buffer contained 100 mM HEPES, pH 7.5, 0.01% Triton X-100, 0.1% bovine serum albumin (BSA), 5 mM MgCl2; 1 mM dithiothreitol (DTT), 10 μM sodium orthovanadate, and 10 μM β-glycerophosphate.
The assay was conducted by adding 5 μL of enzyme, adenosine triphosphate (ATP) and buffer to an assay plate. A 100 nL aliquot of the diluted compounds were added to the plate. The assay was initiated by the addition of 5 μL of phosphoenolpyruvate substrate (PEP) in buffer. […] The reaction was terminated by the addition of EDTA. The plates were analyzed using a Caliper LabChip 3000.
Additional inhibition assays were performed as described above.
The assays were conducted as described above for the racemates.

[1] = CDK4 CyclinD1 IC50, Table 4b, lower part

Structure (SMILES) | IC50 (CDK9-CYCLINT1; Table 4b, lower part) | IC50 (CDK6-CYCLIND3; Table 4b, lower part) | IC50 (CDK2-CYCLINA; Table 4b, lower part) | IC50 (CDK7 CyclinH; Table 4b, lower part) | IC50 (CDK4-CYCLIND1; [1]) | IC50 (CDK9-CYCLINT1; Table 4a) | IC50 (CDK6-CYCLIND3; Table 4a) | IC50 (CDK2-CYCLINA; Table 4a) | IC50 (CDK7 CyclinH; Table 4a) | IC50 (CDK4-CYCLIND1; CDK4 CyclinD1 IC50, Table 4a)
CN1CCN(c2ccc(Nc3ncc4c(n3)N(C35CC(C3)C5)C(=O)C3(CCNC3=O)C4)cc2F)CC1 (stereo not drawn) [Example D183, 8-(bicyclo[1.1.1]pentan-1-yl)-2-((3-fluoro-4-(4-methylpiperazin-1-yl)phenyl)amino)-5,8-dihydro-7H-spiro[pyrido[2,3-d]pyrimidine-6,3′-pyrrolidine]-2′,7-dione] | 76.8 nM | 66.2 nM | 2430 nM | 2340 nM | 22.9 nM | – | – | – | – | –
O=C1NCC[C@@]12Cc1cnc(Nc3ccc(N4CC5(CNC5)C4)cc3)nc1N(C1CCCC1)C2=O [Example D172, (S)-2-((4-(2,6-diazaspiro[3.3]heptan-2-yl)phenyl)amino)-8-cyclopentyl-5,8-dihydro-7H-spiro[pyrido[2,3-d]pyrimidine-6,3′-pyrrolidine]-2′,7-dione] | – | – | – | – | – | 4.81 nM | 6.6 nM | 79.5 nM | 673 nM | 2.72 nM
COc1cc(Nc2ncc3c(n2)N(C2CCCC2)C(=O)[C@]2(CCNC2=O)C3)ccc1N1CCN(C(C)C)CC1 [Example D161, (S)-8-cyclopentyl-2-((4-(4-isopropylpiperazin-1-yl)-3-methoxyphenyl)amino)-5,8-dihydro-7H-spiro[pyrido[2,3-d]pyrimidine-6,3′-pyrrolidine]-2′,7-dione] | – | – | – | – | – | 7.27 nM | 3.88 nM | 30.5 nM | 157 nM | 1.29 nM
Cc1cc(N2CCN(C)CC2)ccc1Nc1ncc2c(n1)N(C1CCCC1)C(=O)[C@]1(CCNC1=O)C2 [Example D163, (S)-8-cyclopentyl-2-((2-methyl-4-(4-methylpiperazin-1-yl)phenyl)amino)-5,8-dihydro-7H-spiro[pyrido[2,3-d]pyrimidine-6,3′-pyrrolidine]-2′,7-dione] | – | – | – | – | – | 65.1 nM | 10.6 nM | 338 nM | 2630 nM | 9.02 nM
CN1CCN(c2ccc(Nc3ncc4c(n3)N(C35CC(C3)C5)C(=O)[C@]3(CCNC3=O)C4)cc2)CC1 [Example D186, (S)-8-(bicyclo[1.1.1]pentan-1-yl)-2-((4-(4-methylpiperazin-1-yl)phenyl)amino)-5,8-dihydro-7H-spiro[pyrido[2,3-d]pyrimidine-6,3′-pyrrolidine]-2′,7-dione] | 61.5 nM | 38.7 nM | 1490 nM | 2320 nM | 13.9 nM | – | – | – | – | –
O=C1NCC[C@@]12Cc1cnc(Nc3ccc(N4CCC(N5CCOCC5)CC4)cn3)nc1N(C1CCCC1)C2=O [Example D181, (S)-8-cyclopentyl-2-((5-(4-morpholinopiperidin-1-yl)pyridin-2-yl)amino)-5,8-dihydro-7H-spiro[pyrido[2,3-d]pyrimidine-6,3′-pyrrolidine]-2′,7-dione] | 818 nM | 6.79 nM | 5820 nM | 40900 nM | 4.3 nM | – | – | – | – | –
O=C1NCC[C@@]12Cc1cnc(Nc3ccc(N4CCNCC4)cn3)nc1N(C1CCCC1)C2=O [Example D152, (S)-8-cyclopentyl-2-((5-(piperazin-1-yl)pyridin-2-yl)amino)-5,8-dihydro-7H-spiro[pyrido[2,3-d]pyrimidine-6,3′-pyrrolidine]-2′,7-dione] | – | – | – | – | – | 120 nM | 1.64 nM | 1710 nM | 19000 nM | 1.18 nM
Cc1cc(Nc2ncc3c(n2)N(C2CCCC2)C(=O)[C@]2(CCNC2=O)C3)ccc1N1CCN(C)CC1 [Example D157, (S)-8-cyclopentyl-2-((3-methyl-4-(4-methylpiperazin-1-yl)phenyl)amino)-5,8-dihydro-7H-spiro[pyrido[2,3-d]pyrimidine-6,3′-pyrrolidine]-2′,7-dione] | – | – | – | – | – | 3.67 nM | 1.51 nM | 18.3 nM | 164 nM | 0.908 nM
O=C1NCC[C@@]12Cc1cnc(Nc3ccc(N4CCNCC4)c(F)c3)nc1N(C13CC(C1)C3)C2=O [Example D184, (S)-8-(bicyclo[1.1.1]pentan-1-yl)-2-((3-fluoro-4-(piperazin-1-yl)phenyl)amino)-5,8-dihydro-7H-spiro[pyrido[2,3-d]pyrimidine-6,3′-pyrrolidine]-2′,7-dione] | 46.8 nM | 43.5 nM | 1400 nM | 1690 nM | 19.6 nM and 11.1 nM | – | – | – | – | –
CN1CCN(c2ccc(Nc3ncc4c(n3)N(C3CCCC3)C(=O)[C@]3(CCNC3=O)C4)nc2)CC1 [Example D153, (S)-8-cyclopentyl-2-((5-(4-methylpiperazin-1-yl)pyridin-2-yl)amino)-5,8-dihydro-7H-spiro[pyrido[2,3-d]pyrimidine-6,3′-pyrrolidine]-2′,7-dione] | – | – | – | – | – | 316 nM | 3.62 nM | 2440 nM | 18400 nM | 2.94 nM
CN1CCN(c2ccc(Nc3ncc4c(n3)N(C35CC(C3)C5)C(=O)[C@]3(CCNC3=O)C4)nc2)CC1 [Example D188, (S)-8-(bicyclo[1.1.1]pentan-1-yl)-2-((5-(4-methylpiperazin-1-yl)pyridin-2-yl)amino)-5,8-dihydro-7H-spiro[pyrido[2,3-d]pyrimidine-6,3′-pyrrolidine]-2′,7-dione] | > 100000 nM | 21700 nM | > 100000 nM | > 100000 nM | 10600 nM | – | – | – | – | –
CN(C)[C@H]1CCN(c2ccc(Nc3ncc4c(n3)N(C3CCCC3)C(=O)[C@]3(CCNC3=O)C4)cc2)C1 [Example D174, (S)-8-cyclopentyl-2-((4-((S)-3-(dimethylamino)pyrrolidin-1-yl)phenyl)amino)-5,8-dihydro-7H-spiro[pyrido[2,3-d]pyrimidine-6,3′-pyrrolidine]-2′,7-dione] | – | – | – | – | – | 6.93 nM | 3.16 nM | 60.9 nM | 505 nM | 1.52 nM
CC(C)N1CC2(CN(c3ccc(Nc4ncc5c(n4)N(C4CCCC4)C(=O)[C@]4(CCNC4=O)C5)nc3)C2)C1 [Example D171, (S)-8-cyclopentyl-2-((5-(6-isopropyl-2,6-diazaspiro[3.3]heptan-2-yl)pyridin-2-yl)amino)-5,8-dihydro-7H-spiro[pyrido[2,3-d]pyrimidine-6,3′-pyrrolidine]-2′,7-dione] | – | – | – | – | – | 271 nM | 3.78 nM | 2840 nM | 26500 nM | 1.98 nM
CN(C)[C@H]1CCN(C(=O)c2ccc(Nc3ncc4c(n3)N(C3CCCC3)C(=O)[C@]3(CCNC3=O)C4)cc2)C1 [Example D177, (S)-8-cyclopentyl-2-((4-((S)-3-(dimethylamino)pyrrolidine-1-carbonyl)phenyl)amino)-5,8-dihydro-7H-spiro[pyrido[2,3-d]pyrimidine-6,3′-pyrrolidine]-2′,7-dione] | – | – | – | – | – | 19.1 nM | 13.9 nM | 50 nM | 2940 nM | 4.72 nM
CN1CCN(c2ccc(Nc3ncc4c(n3)N(C3CCCC3)C(=O)[C@]3(CCNC3=O)C4)c(F)c2)CC1 [Example D147, (S)-8-cyclopentyl-2-((2-fluoro-4-(4-methylpiperazin-1-yl)phenyl)amino)-5,8-dihydro-7H-spiro[pyrido[2,3-d]pyrimidine-6,3′-pyrrolidine]-2′,7-dione] | – | – | – | – | – | 518 nM | 188 nM | 951 nM | 4260 nM | 73.2 nM
